Measured values: US9850221B2, “Sulfated and unsulfated flavonoid oligomers as cancer therapeutics” (VIRGINIA COMMONWEALTH UNIVERSITY, priority 2013, dated 2017)
pIC50: −log10 of the molar value.

Key:
[1] = test system: Panc-1 (pancreatic) cancer cell lines; assay: Primary spheroid formation assay, Panc-1; format: cell-based, human
Protocol: (§1) Primary (1°) Colonosphere Formation Assay. For primary sphere formation, cells were plated in non-treated, low adhesion, 96 wells plate at the concentration of 100 cells/100 μL/well in stem cell media (SCM) that consisted of DMEM:F12:AA (Gibco), supplemented with 1×B27 (Gibco), 20 ng/mL epidermal growth factor and 10 ng/mL fibroblast growth factor (Sigma). After four hour of incubation, vehicle (control) or NSGM at the desired concentrations were added to each well (at least in triplicates for each sample). On day five, numbers of spheres ranging from […] in diameter were counted using phase contrast microscope and percent inhibition was calculated compared to control.

HT-29 cell line = assay: MTT cell proliferation assay, monolayer growth; format: cell-based, human; settings: monolayer conditions
Protocol: Cell Proliferation Assay. Cell proliferation was evaluated by (3-(4,5-dimethylthiazol-2-yl)-2,5-diphenyltetrazolium bromide) MTT cell proliferation assay. For HT-29 cell line approximately 2.5×10^3 cells/100 μL/well were plated in 96-well tissue culture treated plate. After overnight incubation at 37° C. vehicle (control) or NSGM was added at the desired concentration and the cells were further incubated for 60-72 h. At the end of the incubation, 10 μL of 5 mg/mL MTT solution (Sigma) made in phosphate buffered saline (PBS) (Gibco) was added to each well and incubated for minimum of 2 to 3 hr until crystals formation was observed. Following this, 150 μL of 4 mM HCl (Sigma) in isopropanol solution was added drop wise to each well and the mixture was triturated until the crystals dissolve completely. Finally, the plate was placed on the spectrophotometer reader and read at 590 nm and growth inhibition was calculated as percent of control.

CK20 = assay: Differentiation assay (CK20 expression) in colonosphere cells; format: cell-based, human; settings: spheroid cells on collagen, 2.5% serum, Western blot and immunocytochemistry
Protocol: Differentiation Assay. Single cell suspension from mature HT-29 colonosphere pre-treated with vehicle or G2.2 for 24 hours were plated on collagen coated glass cover slips or flasks in the presence of media supplemented with 2.5% FBS containing G2.2 or vehicle. At indicated time points, cells lysate was examined for CK-20 expression with western-blot as above. Alternatively, cells were fixed with 4% paraformaldehyde for 20 minutes at room temperature, permeabilized for 5 min in 0.5% Triton X-100 solution and blocked in PBS containing 1% BSA for one hour prior to incubation with anti-CK-20 antibody (Abeam) for 2 hours. Cells were then washed, incubated for 60 min with Alexa Fluor conjugate secondary antibodies, rinsed with blocking buffer and mounted on slides with DAPI containing ProLong® Gold Antifade Reagent (Invitrogen). Fluorescently labeled cells were examined using a Zeiss LSM700 laser scanning confocal microscope (Zeiss Micro imaging Inc.). Alexa Flour® 555 signals were imaged sequentially at 40× magnification in frame-interlaced mode to eliminate cross talk between channels.

CSC markers mRNA = assay: Real-time PCR of CSC marker mRNA; format: cell-based, human; settings: 6 hours following treatment
Protocol: Real-Time PCR Analysis. Total RNA was isolated using the mirVana™ miRNA Isolation Kit (Life technologies, Grand Island, N.Y.). 1 μg total RNA was reverse transcribed using First-Strand cDNA Synthesis Kit using hexamer reverse primer (Affymetrix). Real time QPCR was performed using RT^2 SYBR® Green qPCR Master mix (Qiagen) in a 7500 fast real time machine (Applied Biosystem). Relative expressions of mRNA were calculated using ΔΔCT methods using GAPDH as a loading control.

[2] = test system: self-renewal factors OCT4, BMI-1, c-MYC; assay: Western blot of self-renewal factors in spheroids; format: cell-based, human; settings: 100 μM, HT-29
Protocol: (§2) Western Blotting Analysis. Western blot analysis was performed according to the standard protocol described in the literature. Briefly, HT-29 cells were plated in serum-free SCM in a low adhesion 6-well plate to obtain spheroids. Mature spheroids were treated on day 4 after plating, with vehicle or NSGMs for indicated time and cells were solubilized in lysis buffer (20 mM Na3PO4, 100 mM NaCl, 2 mM EDTA, 1% Nonidet P-40, 2.5 mM Na3VO4) containing protease (Roche) as well as phosphatase inhibitor cocktails (Sigma). Following centrifugation at 14,000 g for 15 min, the supernatant was used for Western blot analysis. In all analyses, protein concentration was determined by the Bio-Rad Protein Assay kit (Bio-Rad). Approximately 25-50 μg of protein was separated by polyacrylamide gel electrophoresis and was transferred to PVDF membrane (Bio-Rad). Blocking was done with 5% low fat milk powder for 1 hr followed by overnight incubation with primary antibody (dilution 1:1000): anti-CD44 (Cell Signaling), anti-EpCAM (Cell Signaling), anti-LGR5 (Origene), anti-CD133 ((Miltenyi Biotec), anti-CXCR4 (Abeam), anti-OCT4 (Cell Signaling), anti-BMI-1 (Millipore), anti-c-MYC (Millipore) and anti-CK20 (Abeam). This was followed by incubation with appropriate secondary antibody and protein bands were visualized using the enhanced chemiluminescence detection system and imaged with LAS-3000 Imaging System (FUJIFILM). Densitometry was determined by AIDA image analyzer software (Raytest) and results were calculated as relative intensity compared to control. All experiments were performed at least three times.

HT-29 cells [3] = assay: Primary (1°) colonosphere formation assay, HT-29 (Screen 1); format: cell-based, human; settings: steep dose-response profile; read-out: apparent IC50 for primary spheroid inhibition
Protocol: as §1
(§3) In this screen, sulfated NSGMs that inhibit HT-29 growth under spheroid conditions, but not under monolayer conditions, were then assessed for retention of 2° and 3° spheroid growth inhibition profiles in the absence of NSGM. The latter screen is of particular importance as primary spheroid growth although selective for CSCs doses not distinguish between non self-renewing progenitors and self-renewing CSCs. […] These 11 NSGMs belonged to G2, G4, G11 and G12 scaffolds but only four of the six G2 molecules, one of the two G4, four of the seven G11 and two of the five G12 molecules satisfied the first screen.

[4] = test system: CSC markers CD44, CD133, EpCAM, LGR5, CXCR-4; assay: Western blot of CSC markers in HT-29 spheroids; format: cell-based, human; settings: 100 μM; for reduction of expression of CSC markers (CD44, CD133, EpCAM, LGR5, CXCR-4): HT-29 spheroids, Western blot densitometry vs vehicle
Protocol: as §2

HT-29 colon cancer cells = assay: Cell cycle distribution in spheroid cells; format: cell-based, human; settings: 24 hours, 100 μM, vs vehicle
LGR5 = assay: Flow cytometry analysis of CSC markers in HT-29 spheroids; format: cell-based, human; settings: 100 μM, vs vehicle-treated controls
Protocol: Flow Cytometry Analysis. Human colon cancer HT-29 cells, grown in spheroid or monolayer condition were treated with vehicle or NSGMs for 24 hours, were trypsinized and single cells were re-suspended at 10^6 cells/mL in PBS buffer. Cells were incubated with fluorophore conjugated antibody for 30 minutes at 4° C. and washed once with PBS buffer prior to analysis. Following antibody and dilution were used: LGR5-PE) (Dilution 1:50, Origene), DCLK1 (Dilution 1:33, Abeam). Cell sorting was performed using FACSAria™ II High-Speed Cell Sorter (BD Biosciences) and data were analyzed with FCS Express 4 Flow Cytometry software (De-Novo Software).

HCT-116 = assay: Primary spheroid formation assay, HCT-116; format: cell-based, human; settings: HCT-116 (p53 null)
Protocol: as §1, §3

[5] = Animal weight in mice tumor xenograft model; format: in vivo, NOD-SCID mice; settings: intratumoral, appx 1.125 mg three times a week for three weeks
Protocol: One million HCT116 cells were washed with PBS and injected subcutaneously (0.2 mL cell suspension in 50% matrigel) into 6-week-old NOD-SCID mice (Taconic Incorporation, Germantown, N.Y.) on both flanks. Once the tumors become palpable, 16 mice were randomized into two groups. In the treatment group, animals received direct intratumoral (IT) injection of appx 1.125 mg of G2.2 dissolved in 75 μl PBS (pH=7.4) solution three times a week for three weeks (a total of 10 mg of G2.2 over three weeks). Control animals were also received IT injection with 75 μl of vehicle alone (PBS) on the same schedule. Tumor size was measured three times a week using caliber and tumor volume was calculated as previously described. Mice were also weighed three times a week. All the animals were sacrificed within 1 week after completion of therapy using approved method of CO2 asphyxiation. Tumor xenografts were minced with scalpels blade into small pieces and then digested in DMEM/F12 medium containing 300 units/mL collagenase (Stem Cell Technologies) and 100 units/mL hyaluronidase (Stem Cell Technologies) for 1 hr at 37° C. Cells were then washed and re-suspended to a final concentration of 10^6 cell/mL in DMEM/2% FBS. Cell suspensions from the tumor samples were incubated with PE conjugated LGR5 or CXCR4 antibody for 30 minutes and washed two times with PBS buffer and then analyzed (FIG. 18A-B). […]

[6] = test system: HCT-116 cells, grown in spheroid condition; assay: Apoptosis assay (annexin V/propidium iodide and acridine orange/ethidium bromide); format: cell-based, human
Protocol: Apoptosis Assay. Human colon cancer HCT-116 cells, grown in spheroid condition were treated with vehicle or NSGMs for 24 hours. Following which cells were trypsinized and single cells were re-suspended at 10^6 cells/mL in PBS buffer. Two different methods were used to assess apoptosis induction. In the first methods, cells were incubated with propidium iodide and Annexin V-APC (ebioscience) and flow cytometric analyses were performed as above. […] Briefly, a small volume of cell suspension was mounted on a glass slide and incubated with 1 μl of AO/EB solution and mixed gently just prior to microscopy and quantification. At least 500 cells in 10-15 fields were examined in each sample using Nikon ECLIPSE E800M fluorescence microscope using 20× objective. […] The data was expressed as apoptosis index=[([apoptotic cells (NSGMs)/total cells (NSGMs)]/[apoptotic cells (vehicle)/total cells (vehicle)]).

HCT116 cells = assay: Mice tumor xenograft model, intratumoral G2.2; format: in vivo, NOD-SCID mice
Protocol: One million HCT116 cells were washed with PBS and injected subcutaneously (0.2 mL cell suspension in 50% matrigel) into 6-week-old NOD-SCID mice (Taconic Incorporation, Germantown, N.Y.) on both flanks. Once the tumors become palpable, 16 mice were randomized into two groups. In the treatment group, animals received direct intratumoral (IT) injection of appx 1.125 mg of G2.2 dissolved in 75 μl PBS (pH=7.4) solution three times a week for three weeks (a total of 10 mg of G2.2 over three weeks). Control animals were also received IT injection with 75 μl of vehicle alone (PBS) on the same schedule. Tumor size was measured three times a week using caliber and tumor volume was calculated as previously described. Mice were also weighed three times a week. All the animals were sacrificed within 1 week after completion of therapy using approved method of CO2 asphyxiation. Tumor xenografts were minced with scalpels blade into small pieces and then digested in DMEM/F12 medium containing 300 units/mL collagenase (Stem Cell Technologies) and 100 units/mL hyaluronidase (Stem Cell Technologies) for 1 hr at 37° C. Cells were then washed and re-suspended to a final concentration of 10^6 cell/mL in DMEM/2% FBS. Cell suspensions from the tumor samples were incubated with PE conjugated LGR5 or CXCR4 antibody for 30 minutes and washed two times with PBS buffer and then analyzed (FIG. 18A-B). […] However, none of these values were statistically significant (p>0.1).

HT-29 cells [7] = assay: Secondary (2°) and tertiary (3°) colonosphere assay, HT-29 (Screen 2); format: cell-based, human; settings: no NSGM in 2° and 3° growth assays
Protocol: Secondary (2°) and Tertiary (3°) Colonosphere Assay. For secondary colonospheres, the 96-well plate of primary spheres was centrifuged at speed of 1000 rpm for 1 min and the supernatant was removed. Spheres that settled at the base of the plate were trypsinized with 20 μL/well and single cell suspension was prepared using vigorous mechanical dissociation. The numbers of viable cell were counted with 1:5 ratio of cell:trypan blue and then re-plated at 100 cells/[…] in SCM media in a low adhesion plate. No further treatment with NSGMs was performed. Numbers of spheres were counted as above on day 5. The same method was repeated for tertiary spheres.
The 11 sulfated NSGMs were then studied for their effect on 2° and 3° sphere formation (HT-29 and HCT-116) in Screen 2. By design, this screen reflects a test of true self-renewability of CSCs.^2,3 Single cell suspension obtained from primary spheres formed above was then cultured in the absence of NSGM.

[8] = compared to vehicle treated xenografts, flow cytometry

Question: Which results are given for `O=c1c(OS(=O)(=O)[O-])c(-c2ccc(OS(=O)(=O)[O-])c(OS(=O)(=O)[O-])c2)oc2cc(OS(=O)(=O)[O-])cc(OCCCOc3cc(OS(=O)(=O)[O-])cc4oc(-c5ccc(OS(=O)(=O)[O-])c(OS(=O)(=O)[O-])c5)c(OS(=O)(=O)[O-])c(=O)c34)c12.[Na+].[Na+].[Na+].[Na+].[Na+].[Na+].[Na+].[Na+]` [G2.2]?
Answer: inhibition of spheroid formation, potency relative to HT-29 [1]: essentially identical potency; inhibition of monolayer growth (bulk tumor cells) (HT-29 cell line): minimal effect; CK20 expression (colonic differentiation marker) (CK20): modest induction; mRNA levels of several CSC markers (CSC markers mRNA): marked decrease; BMI-1 expression [2]: significant inhibition; OCT-4 levels [2]: little effect; c-MYC expression [2]: significant inhibition; pIC50 (HT-29 cells [3]): ~4.24; protein expression of CSC markers (LGR5, CXCR4) ([4]; 6 hours): minimal change; protein expression of CSC markers (LGR5, CXCR4) ([4]; 24 hours): significant decrease; reduction of expression of CSC markers (CD44, CD133, EpCAM, LGR5, CXCR-4) [4]: 25-55%; proportion of spheroid cells in G1 phase (cell cycle progression) (HT-29 colon cancer cells): small increase; reduction in LGR5 (hi) cells (LGR5): 39%; inhibition of spheroid formation, potency relative to HT-29 (HCT-116): essentially identical potency; overall animal weight [5]: no effect; induction of apoptosis in spheroid cells ([6]; annexin V labeling and acridine orange/ethidium bromide staining, 100 μM, 24 hours, vs vehicle): 2 to 3 fold; induction of apoptosis in CSC-poor monolayer counterparts ([6]; monolayer cells): did not induce apoptosis; reduction in tumor volume (HCT116 cells; between days 5-19, intratumoral, not statistically significant (p>0.1)): 20-42%; attenuation of CXCR4 positive cells in xenografts (HCT116 cells; [8]): ~75%; attenuation of LGR5 positive cells in xenografts (HCT116 cells; [8]): ~78%

Question: For `O=c1c(OS(=O)(=O)[O-])c(-c2ccc(OS(=O)(=O)[O-])c(OS(=O)(=O)[O-])c2)oc2cc(OS(=O)(=O)[O-])cc(OCCOc3cc(-c4oc5cc(OS(=O)(=O)[O-])cc(OCCOc6cc(OS(=O)(=O)[O-])cc7oc(-c8ccc(OS(=O)(=O)[O-])c(OS(=O)(=O)[O-])c8)c(OS(=O)(=O)[O-])c(=O)c67)c5c(=O)c4OS(=O)(=O)[O-])ccc3OS(=O)(=O)[O-])c12.[Na+].[Na+].[Na+].[Na+].[Na+].[Na+].[Na+].[Na+].[Na+].[Na+].[Na+]` [G4.1], which “reduction of expression of CSC markers (CD44, CD133, EpCAM, LGR5, CXCR-4)” value [4] is on record?
Answer: no effect

Question: And the “Screen 2 outcome (2° and 3° spheroid growth inhibition)” value (HT-29 cells [7])?
Answer: completely failed
